Results published in paper PMC5263243, “PPE Surface Proteins Are Required for Heme Utilization by Mycobacterium tuberculosis” (mBio, 2017).
pKd: −log10 of the molar value.

How the values were obtained:
PPE36 = PPE36 (Mycobacterium tuberculosis, UniProt P9WI01); assay: biochemical
PPE62 = biological target: T1, PPE62 (Mycobacterium tuberculosis, UniProt P9WHX7); assay: SPR (Biacore T200, NTA chip, […] binding model); conditions: read-out: Heme dissociation constant
T1 construct: PPE62His6 (Rv3533c)
T1 sequence (P9WHX7 1-582): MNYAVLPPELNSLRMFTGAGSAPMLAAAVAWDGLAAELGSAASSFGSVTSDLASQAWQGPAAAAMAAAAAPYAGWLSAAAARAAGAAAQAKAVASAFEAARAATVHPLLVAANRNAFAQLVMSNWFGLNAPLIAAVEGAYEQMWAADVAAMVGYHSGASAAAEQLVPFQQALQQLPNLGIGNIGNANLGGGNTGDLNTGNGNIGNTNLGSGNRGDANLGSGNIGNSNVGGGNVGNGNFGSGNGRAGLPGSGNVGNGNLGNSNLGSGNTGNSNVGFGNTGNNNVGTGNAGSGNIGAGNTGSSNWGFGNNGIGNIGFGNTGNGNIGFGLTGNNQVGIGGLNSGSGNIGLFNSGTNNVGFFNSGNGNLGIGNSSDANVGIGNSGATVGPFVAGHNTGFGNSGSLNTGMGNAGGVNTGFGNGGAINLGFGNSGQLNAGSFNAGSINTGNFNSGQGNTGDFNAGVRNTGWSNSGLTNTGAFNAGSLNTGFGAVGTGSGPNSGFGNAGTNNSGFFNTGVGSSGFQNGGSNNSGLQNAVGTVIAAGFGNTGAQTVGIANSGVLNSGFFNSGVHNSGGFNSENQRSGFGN

Sequence of PPE36 (P9WI01 whole entry): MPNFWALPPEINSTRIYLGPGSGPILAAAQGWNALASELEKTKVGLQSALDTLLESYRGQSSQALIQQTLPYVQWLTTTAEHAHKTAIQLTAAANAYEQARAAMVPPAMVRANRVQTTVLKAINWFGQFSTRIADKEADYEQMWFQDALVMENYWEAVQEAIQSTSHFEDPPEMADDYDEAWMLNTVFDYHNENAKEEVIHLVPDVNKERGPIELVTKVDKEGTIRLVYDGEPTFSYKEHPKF
Sequence of PPE36 (L7N6B5 1-98 partner): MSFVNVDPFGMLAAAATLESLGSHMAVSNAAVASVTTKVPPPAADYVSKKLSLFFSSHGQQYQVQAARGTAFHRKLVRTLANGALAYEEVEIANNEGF

Question: How did the pKd (PPE36) turn out when `C=CC1=C(C)C2=Cc3c(C=C)c(C)c4[n]3[Fe]([Cl])[n]3c(c(C)c(CCC(=O)O)c3=CC3=NC(=C4)C(C)=C3CCC(=O)O)=CC1=N2` [hemin] was run?
Answer: The pKd was 2.40.

Question: What about the pKd (PPE62) of the same compound?
Answer: Its pKd is 3.40.
